From patent US9822147B2, “Methods of treating ophthalmic diseases using NPR-B agonists” (priority 2009, dated 2017)
Numbered stars: 1 amine (or outer) side, 2 acyl side, 3 side chain; on linkers, the order of the positions; unused ones are H or OH. Square brackets hold non-standard residues; d marks the D form. Peptide text beside a SMILES is read from it. * marks the point of attachment. Pro(4R-NH2) = N[C@H]1CN[C@H](C(=O)O)C1; X2 = O=C([C@H]1CCCN([*:1])C1)[*:2]; Hyp = O=C(O)[C@@H]1C[C@@H](O)CN1; NHcycloheptyl = C1CCCC(N*)CC1; NMeL = CN[C@@H](CC(C)C)C(=O)O; Octanoyl = CCCCCCCC(=O)*; Api = NC1(C(=O)O)CCNCC1

Columns and labels:
[1] = test system: human colon adenocarcinoma cells; details: 1 mM ANP, within 24 h; cited from earlier work
chondrocytes = details: CNP 10 to 100 pM, at the highest dose; cited from earlier work
rabbit eyes = assay: Efficacy in the rabbit: intraocular pressure (IOP) after a single topical ocular drop; format: in vivo; details: dose 300 ug topical ocular, single 30 μL drop, up to 4 hr post dose, 1% as suspension (+) or solution (++) per mark on label
Description: A single 30 μL drop of a test item formulation was administered to rabbit eyes (n=8 to 10).
Intraocular pressure (IOP) was assessed in each eye at 0 hr, just prior to dosing, and again hourly for up to 4 hr post dose. The efficacy of a given formulation was determined based on the difference between the pretreatment TOP readings at 0 hr and the post treatment readings. A maximum percent reduction in IOP greater than 15% was noted by the “+” symbol. A maximum IOP reduction of less than 15% was assigned the “−” symbol.

[2] = test system: human renal carcinoma cells; details: 100 μM; cited from earlier work
[3] = test system: small-cell lung cancer cells; details: 100 μM; cited from earlier work
NPR-B receptor = molecular target: T1, NPR-B receptor (Mus musculus, UniProt Q6VVW5); details: AtT-20 cells; cited from earlier work
T1 construct: the only natriuretic receptor present on the cell surface was the NPR-B receptor; host or cells: AtT-20 pituitary tumor cells (endogenous receptor)
T1 sequence (Q6VVW5 17-1047): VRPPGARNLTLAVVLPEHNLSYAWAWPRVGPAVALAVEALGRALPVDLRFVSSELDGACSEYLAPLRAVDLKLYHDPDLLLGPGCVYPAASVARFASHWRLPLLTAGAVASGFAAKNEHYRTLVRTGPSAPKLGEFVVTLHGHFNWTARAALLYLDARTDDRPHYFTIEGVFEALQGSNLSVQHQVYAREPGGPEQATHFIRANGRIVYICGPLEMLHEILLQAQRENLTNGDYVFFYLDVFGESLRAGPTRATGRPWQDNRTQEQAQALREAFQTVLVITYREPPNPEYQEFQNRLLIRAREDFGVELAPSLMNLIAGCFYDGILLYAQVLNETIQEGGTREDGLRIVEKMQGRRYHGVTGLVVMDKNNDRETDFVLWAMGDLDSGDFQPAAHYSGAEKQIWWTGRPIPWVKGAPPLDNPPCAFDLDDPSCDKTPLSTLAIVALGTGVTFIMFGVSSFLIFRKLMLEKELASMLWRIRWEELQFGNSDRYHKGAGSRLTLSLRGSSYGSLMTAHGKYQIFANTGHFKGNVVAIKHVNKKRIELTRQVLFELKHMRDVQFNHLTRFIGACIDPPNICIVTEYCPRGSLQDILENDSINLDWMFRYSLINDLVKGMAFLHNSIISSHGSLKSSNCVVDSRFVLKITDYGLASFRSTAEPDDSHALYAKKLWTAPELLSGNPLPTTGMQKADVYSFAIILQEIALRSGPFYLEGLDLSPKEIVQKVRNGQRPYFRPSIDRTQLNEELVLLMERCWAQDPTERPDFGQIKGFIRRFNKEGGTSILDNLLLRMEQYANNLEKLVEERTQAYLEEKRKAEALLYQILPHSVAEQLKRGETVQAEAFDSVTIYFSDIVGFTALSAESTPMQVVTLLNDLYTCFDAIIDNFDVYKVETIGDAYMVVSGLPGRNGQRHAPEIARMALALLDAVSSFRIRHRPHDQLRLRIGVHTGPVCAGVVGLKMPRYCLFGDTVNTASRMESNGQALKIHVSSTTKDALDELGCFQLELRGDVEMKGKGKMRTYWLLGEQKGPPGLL

NPR-B = molecular target: T2, NPR-B (Homo sapiens, UniProt P20594); assay: NPR-B induced production of cyclic GMP in human glaucoma trabecular meshwork cells (GTM-3); format: cell-based; details: group by EC50 and Emax (CNP = 100%); Table 4; read-out: Activity (group), NPR-B activation assayed with GTM-3 cells
T2 construct: a functional assay using endogenously NPR-B expressing GTM-3 cells; endogenous in cells; host or cells: GTM-3 (human glaucoma trabecular meshwork cells)
T2 sequence (P20594 23-1047): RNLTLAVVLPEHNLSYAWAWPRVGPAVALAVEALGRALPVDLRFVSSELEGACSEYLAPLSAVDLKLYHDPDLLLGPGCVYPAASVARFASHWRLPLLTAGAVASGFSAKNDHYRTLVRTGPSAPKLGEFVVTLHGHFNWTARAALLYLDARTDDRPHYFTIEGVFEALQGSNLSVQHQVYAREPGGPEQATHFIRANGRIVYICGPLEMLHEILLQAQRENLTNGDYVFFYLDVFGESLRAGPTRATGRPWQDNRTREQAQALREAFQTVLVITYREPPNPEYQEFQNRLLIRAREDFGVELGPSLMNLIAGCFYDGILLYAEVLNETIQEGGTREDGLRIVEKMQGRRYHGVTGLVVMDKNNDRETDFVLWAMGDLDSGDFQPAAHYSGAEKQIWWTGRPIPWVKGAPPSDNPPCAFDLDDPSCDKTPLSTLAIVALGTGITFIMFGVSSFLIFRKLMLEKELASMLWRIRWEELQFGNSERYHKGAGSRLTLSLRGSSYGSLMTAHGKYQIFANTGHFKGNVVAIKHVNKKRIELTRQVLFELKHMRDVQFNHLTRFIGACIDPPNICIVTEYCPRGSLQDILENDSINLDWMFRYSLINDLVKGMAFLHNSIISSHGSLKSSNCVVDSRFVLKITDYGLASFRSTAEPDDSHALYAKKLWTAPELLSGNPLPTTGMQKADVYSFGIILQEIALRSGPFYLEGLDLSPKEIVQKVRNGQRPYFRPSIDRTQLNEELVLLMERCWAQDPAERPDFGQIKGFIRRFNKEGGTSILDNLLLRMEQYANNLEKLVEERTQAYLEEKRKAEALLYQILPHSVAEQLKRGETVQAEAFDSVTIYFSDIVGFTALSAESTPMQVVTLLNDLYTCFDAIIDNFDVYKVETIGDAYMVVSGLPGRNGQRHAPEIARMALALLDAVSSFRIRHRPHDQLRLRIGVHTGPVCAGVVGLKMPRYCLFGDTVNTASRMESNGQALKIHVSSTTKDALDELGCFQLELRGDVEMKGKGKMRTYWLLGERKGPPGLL

Q: Which “decrease in cell number” value [1] does the source give for `CC[C@H](C)[C@@H]1NC(=O)[C@H](CCCNC(=N)N)NC(=O)[C@H](CC(=O)O)NC(=O)[C@H](CCSC)NC(=O)[C@H](CCCNC(=N)N)NC(=O)CNC(=O)CNC(=O)[C@H](Cc2ccccc2)NC(=O)[C@@H](NC(=O)[C@H](CO)NC(=O)[C@H](CO)NC(=O)[C@H](CCCNC(=N)N)NC(=O)[C@H](CCCNC(=N)N)NC(=O)[C@H](CC(C)C)NC(=O)[C@@H](N)CO)CSSC[C@@H](C(=O)N[C@@H](CC(N)=O)C(=O)N[C@@H](CO)C(=O)N[C@@H](Cc2ccccc2)C(=O)N[C@@H](CCCNC(=N)N)C(=O)N[C@@H](Cc2ccc(O)cc2)C(=O)O)NC(=O)CNC(=O)[C@H](CC(C)C)NC(=O)CNC(=O)[C@H](CO)NC(=O)[C@H](CCC(N)=O)NC(=O)[C@H](C)NC(=O)CNC1=O` [ANP, atrial natriuretic peptide] here?
A: Its value is “up to 97%”.

Q: For `CC[C@H](C)[C@@H]1NC(=O)[C@H](CCCNC(=N)N)NC(=O)[C@H](CC(=O)O)NC(=O)[C@H](CC(C)C)NC(=O)[C@H](CCCCN)NC(=O)[C@H](CC(C)C)NC(=O)CNC(=O)[C@H](Cc2ccccc2)NC(=O)[C@@H](NC(=O)CNC(=O)[C@H](CCCCN)NC(=O)[C@H](CO)NC(=O)[C@H](CC(C)C)NC(=O)CN)CSSC[C@@H](C(=O)O)NC(=O)CNC(=O)[C@H](CC(C)C)NC(=O)CNC(=O)[C@H](CO)NC(=O)[C@H](CCSC)NC(=O)[C@H](CO)NC(=O)CNC1=O` [CNP, C-type natriuretic peptide], which “increase in cellularity (chondrocyte proliferation)” value (chondrocytes) is on record?
A: The value was “up to 43%”.

Q: And the “RIOP, maximum percent reduction in IOP” value (rabbit eyes)?
A: Its value is “− (− IOP reduction <15%)”.

Q: What about the “decrease in cell number of human renal carcinoma cells” value [2] of the same compound?
A: Its value is 10%.

Q: What about the “decrease in the number of small-cell lung cancer cells” value [3] of the same compound?
A: Its value is 39%.

Q: And the “stimulation of cGMP production” value (NPR-B receptor)?
A: The value was “up to 200 fold”.

Q: Which “RIOP, maximum percent reduction in IOP” value (rabbit eyes) does the source give for `CCCCCCCC(=O)N[C@H](C)C(=O)N[C@@H](Cc1ccccc1)C(=O)N[C@H](CC(C)C)C(=O)N[C@@H](CC(C)C)C(=O)N1C[C@H](O)C[C@H]1C(=O)N(C)[C@@H](CC(C)C)C(=O)N[C@@H](CC(=O)O)C(=O)N[C@@H](CCCNC(=N)N)C(=O)N[C@H](C(N)=O)[C@@H](C)CC` [JAL-1042, Occ-ala-Phe-leu-Leu-Hyp-Nml-Asp-Arg-Ile-NH2] (HELM PEPTIDE1{[CCCCCCCC(=O)[*:2]].[dA].F.[dL].L.[Hyp].[meL].D.R.I.[am]}$$$$V2.0) here?
A: The value was “− (− IOP reduction <15%)”.

Q: And the EC50 (NPR-B)?
A: The EC50 was under 1000 nM.

Q: Which results are given for `CCCCCCCC(=O)N1CCC[C@H](C(=O)N[C@@H](Cc2ccccc2)C(=O)N[C@H](CC(C)C)C(=O)N[C@@H](CC(C)C)C(=O)N2C[C@H](N)C[C@H]2C(=O)N(C)[C@@H](CC(C)C)C(=O)N[C@H](C(=O)N2CCC[C@H]2C(=O)NC2CCCCCC2)C(C)C)C1` [JAL-1654, Occ-Sni-Phe-leu-Leu-Tap-Nml-Val-Pro-Che] (Octanoyl-[X2]F[dL]L[Pro(4R-NH2)][NMeL]VP-NHcycloheptyl)?
A: RIOP, maximum percent reduction in IOP (rabbit eyes): − (− IOP reduction <15%); EC50 (NPR-B): < 1000 nM

Q: For `CCCCCCCC(=O)N1CCC[C@H](C(=O)N[C@@H](Cc2ccccc2)C(=O)N[C@H](CC(C)C)C(=O)N[C@@H](CC(C)C)C(=O)N2C[C@H](O)C[C@H]2C(=O)N(C)[C@@H](CC(C)C)C(=O)N[C@H](C(=O)N[C@@H](CCCNC(=N)N)C(=O)NC2CCCCCC2)C(C)C)C1` [JAL-1730, Occ-Sni-Phe-leu-Leu-Hyp-Nml-Val-Arg-Che] (Octanoyl-[X2]F[dL]L[Hyp][NMeL]VR-NHcycloheptyl), which “RIOP, maximum percent reduction in IOP” value (rabbit eyes) is on record?
A: The value was “+ (+ IOP reduction >15%)”.

Q: And the EC50 (NPR-B)?
A: The EC50 was under 1000 nM.

Q: For `CCCCCCCC(=O)N1CCC[C@H](C(=O)N[C@@H](Cc2ccccc2)C(=O)NC2(C(=O)N[C@@H](CC(C)C)C(=O)N3C[C@H](O)C[C@H]3C(=O)N(C)[C@@H](CC(C)C)C(=O)N[C@@H](CC(=O)O)C(=O)N[C@@H](CCCNC(=N)N)C(=O)N[C@H](C(N)=O)[C@@H](C)CC)CCNCC2)C1` [JAL-1555, Occ-Sni-Phe-Apc-Leu-Hyp-Nml-Asp-Arg-Ile-NH2] (Octanoyl-[X2]F[Api]L[Hyp][NMeL]DRI-NH2), which “RIOP, maximum percent reduction in IOP” value (rabbit eyes) is on record?
A: Its value is “+ (+ IOP reduction >15%)”.

Q: And the EC50 (NPR-B)?
A: Its EC50 is under 1000 nM.

Q: What does the source list for `CCCCCCCC(=O)N1CCC[C@H](C(=O)N[C@@H](Cc2ccccc2)C(=O)N[C@H](CC(C)C)C(=O)N[C@@H](CC(C)C)C(=O)N2C[C@H](O)C[C@H]2C(=O)N(C)[C@@H](CC(C)C)C(=O)N[C@@H](CC(=O)O)C(=O)N[C@@H](CCCNC(=N)N)C(=O)N[C@H](C(N)=O)[C@@H](C)CC)C1` [JAL-1041, Occ-Sni-Phe-leu-Leu-Hyp-Nml-Asp-Arg-Ile-NH2] (HELM PEPTIDE1{[CCCCCCCC(=O)[*:2]].[O=C([C@H]1CCCN([*:1])C1)[*:2]].F.[dL].L.[Hyp].[meL].D.R.I.[am]}$$$$V2.0)?
A: RIOP, maximum percent reduction in IOP (rabbit eyes): + (+ IOP reduction >15%); EC50 (NPR-B): < 1000 nM
